This is an account of results in patent US20260231940A1, “METHOD FOR ATTRACTING COCKROACHES, COCKROACH ATTRACTANT, AND METHOD FOR CONTROLLING COCKROACHES” (SUMITOMO CHEMICAL COMPANY, LIMITED, priority 2023, published 2026).

What all share (assay type): in vivo
In test [1] the test system is Blattella germanica. The experiment in a line: Test Example 4: choice test, methoprene-applied filter paper uneven sheet. Particulars: 1 g methoprene per 1 m^2, four hours after release, total of eight repetitions. From the text:
(§1) FIG. 3 is a planar view schematically illustrating the test space used in Test Examples 1 to 5. […] Depending on the test system, a container 2 containing solid feed for MF mouse rats as bait and a container 3 containing water were placed between these two uneven sheets 1.
(§2) A sheet formed from a filter paper (ADVANTEC qualitative filter paper No. 2, manufactured by Toyo Roshi Kaisha, Ltd.) wherein the sheet was a triangular wave shape in its cross-sectional shape as shown in FIG. 2(b) was used. Specifically, an uneven sheet (a corrugated sheet) the depth of the concave portion and the height of the convex portion of which were each 17 mm, and where the concave portions and the convex portions were formed in a corrugated shape so that the angle at the vertices of the concave portions might be 60° was prepared.
(§3) As the uneven sheets 1 placed in the test space 20, all those being 10 cm×16 cm in size were used, and they were placed so that the ridge lines of the corrugations of the uneven sheets 1 were parallel to the lengthwise direction of the test space 20. […]
(§4) In the test space 20 prepared as described above, Blattella germanica (30 individuals in total) were released, and four hours later, the number of individuals settled in each uneven sheet 1 and the number of individuals present in the test space 20 other than the uneven sheets 1 were counted. […]

Test [2] has as its system Blattella germanica. The experiment in a line: Test Example 3: choice test, bistrifluron-applied filter paper uneven sheet. Conditions: 1 g bistrifluron per 1 m^2, four hours after release, total of four repetitions.
Description: as §1, §2, §3, §4

In test [3] the test system is Blattella germanica. The test is described as follows: Test Example 5: choice test, hydroprene-applied filter paper uneven sheet. Conditions: 500 mg hydroprene per 1 m^2, 24 hours after release, total of eight repetitions.
Description: as §1, §2, §3
In the test space 20 prepared as described above, Blattella germanica (30 individuals in total) were released, and 24 hours later, the number of individuals settled in each uneven sheet 1 and the number of individuals present in the test space 20 other than the uneven sheets 1 were counted. […]

Test [4] concerns Periplaneta americana nymphs. The test is described as follows: Test Example 1: choice test, chemical-applied versus blank uneven sheet. As for the experimental part: (§5) Specifically, an uneven sheet (a corrugated sheet) the depth of the concave portion and the height of the convex portion of which were each 10 mm, and where the concave portions and the convex portions were formed in a corrugated shape so that the angle at the vertices of the concave portion might be 53° was prepared. The uneven sheet was used in Test Example 1 and Test Example 2.
as §1
(§6) As the uneven sheets 1 placed in the test space 20, all those being 10 cm×10 cm in size were used, and they were placed so that the ridge lines of the corrugations of the uneven sheets 1 were parallel to the lengthwise direction of the test space 20.
(§7) As test insects, Periplaneta americana nymphs, Cimex lectularius, Dermanyssus gallinae, Sitophilus zeamais, and Plodia interpunctella larvae were used. Cimex lectularius and Dermanyssus gallinae were released into each test space 20 where feed and water had not been placed and only corrugated sheets 1 had been placed. Periplaneta americana nymphs were released into test space 20 where containers 2 and 3 containing feed and water respectively placed between the facing uneven sheets 1 as shown in FIG. 3. Sitophilus zeamais and Plodia interpunctella larvae were released into each test space 20 where feed and water had not been placed and brown rice had been placed on uneven sheets 1 as a hiding place for the test insects.
(§8) Four days after releasing the insects, the number of individuals settled in each uneven sheet 1 and the number of individuals present in the test space 20 other than the uneven sheets 1 were counted. The above test was conducted in two repetitions.

The subject of another test is Cimex lectularius. The test is described as above. Particulars: 1 g pyriproxyfen per 1 m^2, four days after release, total of two repetitions. How it is done: as §5, §1, §6, §7, §8
The next test deals with Dermanyssus gallinae. The test is described as above. Particulars: 1 g pyriproxyfen per 1 m^2, four days after release, total of two repetitions. As for the experimental part: as §5, §1, §6, §7, §8
In test [5] the test system is Plodia interpunctella larvae. The description is as above. Particulars: 1 g pyriproxyfen per 1 m^2, four days after release, total of two repetitions. How it is done:
as §5, §1, §6, §7, §8

A further test concerns Sitophilus zeamais. The test is described as above. Conditions: 1 g pyriproxyfen per 1 m^2, four days after release, total of two repetitions. As for the experimental part:
as §5, §1, §6, §7, §8

In test [6] the test system is Blattella germanica. The experiment in a line: Test Example 2: choice test, pyriproxyfen amount series on uneven sheet. Particulars: four hours after release, total of four repetitions; for Number of individuals Uneven sheet (chemical applied): 120 released. As for the experimental part:
as §5, §1
As the uneven sheets 1 placed in the test space 20, all those being 10 cm×16 cm in size were used, and they were placed so that the ridge lines of the corrugations of the uneven sheets 1 were parallel to the lengthwise direction of the test space 20. Additionally, containers 2 and 3 containing feed and water respectively were placed between the facing uneven sheets 1.
In the test space 20 prepared as described above, Blattella germanica (30 individuals in total) were released, and four hours later, the number of individuals settled in each uneven sheet 1 and the number of individuals present in the test space 20 other than the uneven sheets 1 were counted. The above test was conducted in four repetitions.

Where [7] appears, read: 60 released, brown rice on sheets.

As to `COC(C)(C)CCC[C@H](C)C/C=C/C(C)=C/C(=O)OC(C)C` (racemic) [methoprene], in the test with Blattella germanica [1] (240 released), the “Number of individuals Uneven sheet (chemical applied)” value (“Number of individuals Uneven sheet” below) was found to be 152. For the same compound, the “Hiding rate (Chemical applied / Blank)” value in the test on Blattella germanica [1] was 2.92.

Turning to `O=C(NC(=O)c1c(F)cccc1F)Nc1cc(C(F)(F)F)cc(C(F)(F)F)c1Cl` [bistrifluron], the “Number of individuals Uneven sheet” value in the test with Blattella germanica [2] (120 released) is given as 71. In addition, the “Hiding rate (Chemical applied / Blank)” value with Blattella germanica [2] was 2.29.

In the case of `CCOC(=O)/C=C(C)/C=C/CC(C)CCCC(C)C` (centres unmarked) [hydroprene], the “Number of individuals Uneven sheet” value with Blattella germanica [3] (240 released) is 160. In the test with Blattella germanica [3], the “Hiding rate (Chemical applied / Blank)” value came to 2.13.

In the case of `CC(COc1ccc(Oc2ccccc2)cc1)Oc1ccccn1` (centres unmarked) [pyriproxyfen], the “Number of individuals Uneven sheet” value in test [4] (Periplaneta americana nymphs, 1 g pyriproxyfen per 1 m^2, four days after release, 60 released, total of two repetitions, feed and water placed) was determined as 39; in the test on Cimex lectularius (30 released, no feed or water) it was 12; in the test on Dermanyssus gallinae (59 released, no feed or water) it was 17; in test [5] (setting [7]), 23; in the test on Sitophilus zeamais (setting [7]), 21; with Blattella germanica [6] (10 mg/m^2 pyriproxyfen), 78. Moreover, the “Number of individuals Uneven sheet” value in the test with Blattella germanica [6] (100 mg/m^2 pyriproxyfen) is 70; with Blattella germanica [6] (500 mg/m^2 pyriproxyfen), 98; with Blattella germanica [6] (1000 mg/m^2 pyriproxyfen), 91; with Blattella germanica [6] (2000 mg/m^2 pyriproxyfen), 67; with Blattella germanica [6] (5000 mg/m^2 pyriproxyfen) it was 71. Also, the “Hiding rate (Chemical applied / Blank)” value in [4] (Periplaneta americana nymphs, 1 g pyriproxyfen per 1 m^2, four days after release, total of two repetitions) was 1.86; with Cimex lectularius, 0.75; with Dermanyssus gallinae, 0.94; in [5], 0.62; with Sitophilus zeamais, 0.64; in the test on Blattella germanica [6] (10 mg/m^2 pyriproxyfen) it was 1.95. For the same compound, the “Hiding rate (Chemical applied / Blank)” value in the test on Blattella germanica [6] (100 mg/m^2 pyriproxyfen) was determined as 1.52; with Blattella germanica [6] (500 mg/m^2 pyriproxyfen), 5.44; in the test on Blattella germanica [6] (1000 mg/m^2 pyriproxyfen), 3.25; in the test with Blattella germanica [6] (2000 mg/m^2 pyriproxyfen), 1.40; in the test with Blattella germanica [6] (5000 mg/m^2 pyriproxyfen), 1.54. For the same compound, the attracting effect entry in test [4] (conclusion from Table 1: Periplaneta americana nymphs versus the four other test species) is recorded as “specific to cockroaches”.
